Assays:
VIOAR = experiment: Activity with different soil types, greenhouse (Table 5); format: in vivo, Viola arvensis; conditions: g of AS/ha: (A) 90, (B) 300, (C) 140, (A)+(B)+(C) 90 + 300 + 140; for activity VIOAR IU soil: IU soil (loamy silt standard field soil); for activity V18 VIOAR IU/EC73 soil: IU/EC73 soil (heavy soil, higher organic substance)
Description: (§1) In the standard design of the test, seeds of various broad-leaved weed and weed grass biotypes (origins) were sown in a 8-13 cm diameter pot filled with natural soil of a standard field soil (loamy silt; non-sterile) and covered with a covering soil layer of about 1 cm. The pots were then cultivated in a greenhouse (12-16 h of light, temperature day 20-22° C., night 15-18° C.) until the time of application. The pots were treated on a laboratory track sprayer with spray liquors comprising the compositions according to the invention, mixtures of the prior art or components used individually. Application of the active compounds or active compound combinations formulated as WG, WP, EC or otherwise was carried out at the appropriate growth stages of the plants. The application rate for the spray application was 100-600 l of water/ha. After the treatment, the plants were returned to the greenhouses.
(§2) About 3 weeks after the application, the soil action or/and foliar action was assessed visually according to a scale of 0-100% in comparison to an untreated comparative group: 0%=no noticeable effect compared to the untreated comparative group; 100%=full effect compared to the untreated comparative group.
(§3) (notes: the term “seeds” also includes vegetative propagation forms such as, for example, rhizome pieces; abbreviations used: h light=hours of illumination, g of AS/ha=gram of active substance per hectare, l/ha=liter per hectare, S=sensitive, R=resistant) • 1. Pre-emergence action against weeds: seeds of various broad-leaved weed and weed grass biotypes (origins) were sown in a 8-13 cm diameter pot filled with natural soil of a standard field soil (loamy silt; non-sterile) and covered with a covering soil layer of about 1 cm. The pots were then cultivated in a greenhouse (12-16 h of light, temperature day 20-22° C., night 15-18° C.) until the time of application. The pots were treated at the BBCH stage 00-10 of the seeds/plants on a laboratory track sprayer with spray liquors comprising the compositions according to the invention, mixtures or components used individually, as WG, WP, EC or other formulations. The application rate for the spray application was 100-600 l of water/ha. After the treatment, the plants were returned to the greenhouses and, when required, treated with fertilizer and watered. • 2. Post-emergence action against weeds: seeds of various broad-leaved weed and weed grass biotypes (origins) were sown in a 8-13 cm diameter pot filled with natural soil of a standard field soil (loamy silt; non-sterile) and covered with a covering soil layer of about 1 cm. The pots were then cultivated in a greenhouse (12-16 h of light, temperature day 20-22° C., night 15-18° C.) until the time of application. The pots were treated at various BBCH stages between 11-25 of the seeds/plants, i.e. generally between two to three weeks after the start of the cultivation, on a laboratory track sprayer with spray liquors comprising the compositions according to the invention, mixtures or components used individually, as WG, WP, EC or other formulations. The application rate for the spray application was 100-600 l of water/ha. After the treatment, the plants were returned to the greenhouses and, when required, treated with fertilizer and watered. • 3. Pre-emergence action against weeds with and without incorporation of active compound: seeds of various broad-leaved weed and weed grass biotypes (origins) were sown in a 8-13 cm diameter pot filled with natural soil of a standard field soil (loamy silt; non-sterile). […]

HORVS [1] = experiment: Activity with different soil types, crop selectivity, greenhouse (Table 5); format: in vivo, Hordeum vulgare, summer barley; conditions: g of AS/ha: (A) 90, (B) 300, (C) 140, (A)+(B)+(C) 90 + 300 + 140; for activity HORVS IU soil (crop plant): IU soil (loamy silt standard field soil); for activity HORVS IU/EC73 soil (crop plant): IU/EC73 soil (heavy soil, higher organic substance)
Description: as §1, §2, §3

HORVS [2] = experiment: PO application, crop selectivity, greenhouse (Table 2); format: in vivo, Hordeum vulgare, summer barley; conditions: g of AS/ha: (A) 120, (B) 1200, (C) 140, (A)+(B)+(C) 120 + 1200 + 140, visual, about 3 weeks after application
Description: as §1, §2
(notes: the term “seeds” also includes vegetative propagation forms such as, for example, rhizome pieces; abbreviations used: h light=hours of illumination, g of AS/ha=gram of active substance per hectare, l/ha=liter per hectare, S=sensitive, R=resistant) • 1. Pre-emergence action against weeds: seeds of various broad-leaved weed and weed grass biotypes (origins) were sown in a 8-13 cm diameter pot filled with natural soil of a standard field soil (loamy silt; non-sterile) and covered with a covering soil layer of about 1 cm. The pots were then cultivated in a greenhouse (12-16 h of light, temperature day 20-22° C., night 15-18° C.) until the time of application. […]

TRZAW = experiment: Different soil pH, PE application, crop selectivity, greenhouse (Table 8); format: in vivo, Triticum aestivum, winter wheat; conditions: for activity TRZAW pH 7.4 (crop plant): soil pH 7.4, g of AS/ha: (A) 90, (B) 300, (C) 140, (A)+(B)+(C) 90 + 300 + 140; for activity TRZAW pH 8.4 (crop plant): soil pH 8.4, g of AS/ha: (A) 90, (B) 300, (C) 140, (A)+(B)+(C) 90 + 300 + 140
Description: as §1, §2, §3

HORVS [3] = experiment: as above; format: in vivo, Hordeum vulgare, summer barley; conditions: for activity HORVS pH 7.4 (crop plant): soil pH 7.4, g of AS/ha: (A) 90, (B) 300, (C) 140, (A)+(B)+(C) 90 + 300 + 140; for activity HORVS pH 8.4 (crop plant): soil pH 8.4, g of AS/ha: (A) 90, (B) 300, (C) 140, (A)+(B)+(C) 90 + 300 + 140
Description: as §1, §2, §3

AVEFA = experiment: PE application with different irrigation, greenhouse (Table 4); format: in vivo, Avena fatua; conditions: g of AS/ha: (A) 90, (B) 300, (C) 140, (A)+(B)+(C) 90 + 300 + 140
Description: as §1, §2, §3

MATCH = experiment: as above; format: in vivo, Matricaria chamomilla; conditions: g of AS/ha: (A) 90, (B) 300, (C) 140, (A)+(B)+(C) 90 + 300 + 140
Description: as §1, §2, §3

Row | SMILES | activity VIOAR IU soil (VIOAR) [%] | activity V18 VIOAR IU/EC73 soil (VIOAR) [%] | activity HORVS IU soil (crop plant) (HORVS [1]) [%] | activity HORVS IU/EC73 soil (crop plant) (HORVS [1]) [%] | activity HORVS (crop plant) (HORVS [2]) [%] | activity TRZAW pH 7.4 (crop plant) (TRZAW) [%] | activity TRZAW pH 8.4 (crop plant) (TRZAW) [%] | activity HORVS pH 7.4 (crop plant) (HORVS [3]) [%] | activity HORVS pH 8.4 (crop plant) (HORVS [3]) [%] | activity AVEFA (AVEFA; irrigation from above) [%] | activity AVEFA (AVEFA; irrigation from below) [%] | activity MATCH (MATCH; irrigation from above) [%] | activity MATCH (MATCH; irrigation from below) [%]
1 | CSc1nnc(C(C)(C)C)c(=O)n1N [(C) metribuzin, 4-amino-6-(1,1-dimethyl-ethyl)-3-(methylthio)-1,2,4-triazin-5-(4H)-one] | 50 | 0 | 0 | 0 | 70 | 70 | 80 | 40 | 50 | 30 | 30 | 0 | 60
2 | CCCN(CCC)c1c([N+](=O)[O-])cc(C(F)(F)F)cc1[N+](=O)[O-] [(B) trifluralin, 2,6-dinitro-N,N-dipropyl-4-(trifluoromethyl)benzenamine] | 77 | 0 | 0 | 0 | 20 | 0 | 0 | 20 | 10 | 25 | 38 | 0 | 40
